Key:
[1] = tested on: MCF7 cells; assay: Global quantitative proteomic analysis of MCF7 cells by mass spectrometry; format: cell-based, Homo sapiens; details: 25 nM, 4 h, two-fold cutoff, p-value ≤0.05, 3491 proteins quantified
Description: (§1) Sample preparation for global proteomics analysis. Sample preparation is similar to the previous report (Ma et al. “Strategy Based on Deglycosylation, Multiprotease, and Hydrophilic Interaction Chromatography for Large-Scale Profiling of Protein Methylation” Anal. Chem. 2017, 89 (23), 12909-12917). Briefly, treated MCF7 cells were harvested by washing with PBS buffer (Gibco, pH 7.4) and lysed in RIPA buffer supplemented with protease inhibitors for 20 min, then protein concentration was determined using a BCA Protein Assay Kit (Thermo Pierce, Rockford, IL) per manufacturer instructions. […] The concentrations of the peptide mixture were measured by peptide assay (Thermo Fisher Scientific). […]
(§2) LC-MS/MS data acquisition. Samples were analyzed on an Orbitrap Fusion Lumos Tribrid mass spectrometer (Thermo Fisher Scientific) coupled to a Dionex UltiMate 3000 UPLC system. […]
(§3) Data analysis. Protein identification and quantification by MaxQuant (version 1.5.3.8) based database searching, using the integrated Andromeda search engine with FDR <1% at peptide and protein levels. […] For label-free protein quantification (LFQ), the MaxQuant LFQ algorithm was used to quantitate the MS signals, and the proteins' intensities were represented in LFQintesnit (Schaab et al. “Analysis of High Accuracy, Quantitative Proteomics Data in the MaxQB Database” Mol. Cell. Proteomics 2012, 11 (3), M111.014068). […]

[2] = target: T1, PRMT1 (Homo sapiens, UniProt Q99873); assay: Global proteomics of MCF7 cells, PRMT1 level; format: cell-based; details: 25 nM, 4 h, versus DMSO
T1 construct: we performed a global quantitative proteomic analysis of MCF7 cells using mass spectrometry; endogenous in cells; host or cells: MCF7
T1 sequence (Q99873 whole entry): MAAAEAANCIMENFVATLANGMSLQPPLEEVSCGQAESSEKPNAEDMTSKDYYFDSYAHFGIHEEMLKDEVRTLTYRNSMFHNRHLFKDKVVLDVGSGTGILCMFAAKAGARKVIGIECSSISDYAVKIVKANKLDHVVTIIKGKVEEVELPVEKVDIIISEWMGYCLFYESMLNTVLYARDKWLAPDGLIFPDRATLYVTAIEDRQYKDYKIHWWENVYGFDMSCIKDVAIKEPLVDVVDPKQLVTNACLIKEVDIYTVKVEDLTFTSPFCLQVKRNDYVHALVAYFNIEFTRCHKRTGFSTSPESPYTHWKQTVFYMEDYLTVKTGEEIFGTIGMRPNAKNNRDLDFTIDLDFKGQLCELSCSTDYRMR
Description: as §1, §2, §3

[3] = target: T2, PRMT5 (Homo sapiens, UniProt O14744); assay: Global proteomics of MCF7 cells, PRMT5 level; format: cell-based; details: 25 nM, 4 h, versus DMSO
T2 construct: we performed a global quantitative proteomic analysis of MCF7 cells using mass spectrometry; endogenous in cells; host or cells: MCF7
T2 sequence (O14744 whole entry): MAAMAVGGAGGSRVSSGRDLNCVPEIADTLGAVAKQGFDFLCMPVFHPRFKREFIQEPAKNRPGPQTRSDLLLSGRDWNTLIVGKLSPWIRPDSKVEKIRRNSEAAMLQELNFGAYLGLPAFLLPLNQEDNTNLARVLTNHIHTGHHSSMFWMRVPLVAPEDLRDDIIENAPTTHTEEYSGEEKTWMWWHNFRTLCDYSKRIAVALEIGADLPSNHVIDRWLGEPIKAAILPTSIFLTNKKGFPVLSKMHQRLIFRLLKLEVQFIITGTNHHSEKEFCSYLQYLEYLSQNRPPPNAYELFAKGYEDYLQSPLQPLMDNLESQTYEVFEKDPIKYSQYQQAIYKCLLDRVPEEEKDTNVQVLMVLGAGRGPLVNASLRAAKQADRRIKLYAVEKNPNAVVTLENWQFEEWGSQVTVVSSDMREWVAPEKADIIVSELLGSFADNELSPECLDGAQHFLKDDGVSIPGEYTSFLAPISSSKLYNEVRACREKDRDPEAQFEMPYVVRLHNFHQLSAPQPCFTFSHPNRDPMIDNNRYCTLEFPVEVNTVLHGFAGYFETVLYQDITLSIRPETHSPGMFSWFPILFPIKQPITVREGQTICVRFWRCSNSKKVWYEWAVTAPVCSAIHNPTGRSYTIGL
Description: as §1, §2, §3

[4] = tested on: BAF155 me2a; assay: BAF155 me2a level in MDA-MB-231 cells, western blot; format: cell-based; details: 0.5 μM, after 48 h
Excerpt: FIGS. 7A-7F. […] Cell lysates were collected and CARM1, methyl-BAF155, total BAF155, methyl-PABP1, and total PABP1 levels were detected by Western blot. […] Cell lysates were collected and CARM1, methyl-BAF155, total BAF155 levels were detected by Western blot. […] Cell proliferation rate normalized to day 0 was plotted. […] Migrated cells were stained with 1% crystal violet and the percentage of migrated cells were plotted. Data mean±s.d. ***. P≤0.001.
Western Blot Assay. Cells were harvested and washed with Dulbecco's phosphate-buffered saline (PBS), then lysed with 1×RIPA lysis buffer (50 mM Tris pH 7.5, 150 mM NaCl, 1% NP-40, 0.5% sodium deoxycholate, and 0.1% sodium dodecyl sulfate) supplemented with 1 mM phenylmethylsulfonyl fluoride, 10 μg/mL aprotinin, 1 μM leupeptin, and 10 μg/mL pepstatin on ice for 20 min. The supernatant was collected after spinning down at 15000 RPM at 4 degrees Celsius for 10 min. The concentration of whole lysates was quantified using a Bradford assay. 50-75 μg of cell lysates was boiled in 4× Laemmli Loading Dye and boiled at 100 degrees Celsius for 10 min. 25 μg were run in 8% SDS-PAGE gels and transferred to nitrocellulose membranes. Blots were blocked in 5% skim milk in PBST [PBS and 0.1% Tween 20] for 45 min, then incubated with primary antibodies at 4 degrees Celsius overnight. […]

[5] = tested on: MCF7 cells; assay: Cell proliferation assay, MCF7 cells; format: cell-based, human; details: 0.5 μM

Question: Which results are given for `CNCCN1CCC(c2cc(CN(C)C(=O)c3cccc(Oc4ccc(OCC(=O)N5CCC(CN6CCC(CN7CCN(CC(=O)N[C@H](C(=O)N8C[C@H](O)C[C@H]8C(=O)N[C@@H](C)c8ccc(-c9scnc9C)cc8)C(C)(C)C)CC7)CC6)CC5)cc4)c3)ccn2)CC1` [Compound 3b, (2S,4R)-1-((S)-3,3-dimethyl-2-(2-(4-((1-((1-(2-(4-(3-(methyl((2-(1-(2-(methylamino)ethyl)piperidin-4-yl)pyridin-4-yl)methyl)carbamoyl)phenoxy)phenoxy)acetyl)piperidin-4-yl)methyl)piperidin-4-yl)methyl)piperazin-1-yl)acetamido)butanoyl)-4-hydroxy-N—((S)-1-(4-(4-methylthiazol-5-yl)phenyl)ethyl)pyrrolidine-2-carboxamide]?
Answer: Number of significantly changed proteins compared to the DMSO group [1]: 25; PRMT1 protein level in proteomics [2]: not significantly changed; PRMT5 protein level in proteomics [3]: not significantly changed; BAF155 me2a level [4]: decrease of BAF155 me2a level was observed; Cell proliferation [5]: not to inhibit cell proliferation
